The target of data set [1] is T1, human orotate phosphoribosyltransferase (HsOPRT), OPRT domain of UMP synthase (Homo sapiens, UniProt P11172).
T1 sequence (P11172 2-245): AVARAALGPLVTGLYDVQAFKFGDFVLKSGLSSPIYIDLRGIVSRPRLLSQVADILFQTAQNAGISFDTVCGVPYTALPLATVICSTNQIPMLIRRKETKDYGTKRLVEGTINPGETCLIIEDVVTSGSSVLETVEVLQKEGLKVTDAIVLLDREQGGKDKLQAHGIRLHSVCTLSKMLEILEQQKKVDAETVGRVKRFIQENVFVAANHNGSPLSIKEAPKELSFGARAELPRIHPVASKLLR
Nature of the data set: steady-state kinetics. In kind it is biochemical. The conditions noted are these: read-out: OMP / Km.

Data set [2] has as its target Plasmodium falciparum orotate phosphoribosyltransferase (PfOPRT) (Plasmodium falciparum, UniProt Q8N0R1). In kind it is biochemical.
For data set [3], the target named is T1, human orotate phosphoribosyltransferase (HsOPRT), OPRT domain of UMP synthase. In kind it is biochemical.
Substrate in the data set “steady-state kinetics”: O=C(O)CP(=O)(O)O
The data set is described as follows: steady-state kinetics. In kind it is biochemical, Plasmodium falciparum. The conditions noted are these: Mg2+ ([…] MgCl2 in assay).

Substrate in the data set “purified protein”: O=C(O)c1cc(=O)[nH]c(=O)n1[C@@H]1O[C@H](COP(=O)(O)O)[C@@H](O)[C@H]1O
The data set is described as follows: purified protein. In kind it is biochemical, Plasmodium falciparum. The conditions noted are these: Mg2+ ([…] MgCl2 in assay); pH 8.0; 25.0 °C.

For the molecule `O=C(O)c1cc(=O)[nH]c(=O)n1[C@@H]1O[C@H](COP(=O)(O)O)[C@@H](O)[C@H]1O` [orotidine 5′-monophosphate], the Km in data set [1] was found to be 1550 ± 610 nM.

Take `O=[N+]([O-])c1ccc(O[C@@H]2O[C@H](COP(=O)(O)O)[C@@H](O)[C@H]2O)cc1` [p-nitrophenyl β-D-ribose 5′-phosphate]: the Ki in data set [2] is 40 ± 21 nM.

Turning to `O=[N+]([O-])c1ccc(O[C@@H]2O[C@H](CO)[C@@H](O)[C@H]2O)cc1` [p-nitrophenyl β-D-ribose], the Ki in data set [2] was 188 ± 40 nM; in data set [3], 121 ± 30 nM.

B1: Plasmodium falciparum orotate phosphoribosyltransferase (PfOPRT) (Plasmodium falciparum) (protein)
chain: MTTIKENEFLCDEEIYKSFVHLKDKICEERKKKELVNNNIDNVNFNDDDDNNYDDDGNSYSSYIKEMKKLLKVVLLKYKALKFGEFILKSKRKSNYFFSSGVLNNIVSSNIICFLLSELILKNKLSFDYLLGASYKGIPMVSLTSHFLFESKKYSNIFYLYDRKEKKEYGDKNVIVGNLDDDDKDILNLKKKTKNNQDEEKKNIIIIDDVFTCGTALTEILAKLKTYEHLKVVAFIVLLNRNEYEINENNQKIYFKDIFEKRVGIPLYSILSYKDDIQSMI
Take B1: in “steady-state kinetics”, the Km came out at 1.59 mM. In the data set “purified protein”, the Km stood at 3.73 ± 1.36 µM, the kcat is 1.96 ± 0.29 s⁻¹ and the kcat/Km came to 530000 M⁻¹ s⁻¹.

(Values after article PMC2669657 (Journal of the American Chemical Society, 2009).)
